Experimental data reported in US8580856B2, “Acetaminophen/ibuprofen combinations and method for their use” (McNeil-PPC, Inc., priority 2006, dated 2013).

Tested on: CO2-laser-induced painful stimulus on UV(B) irradiated skin
Experiment: Laser somatosensory evoked potentials (LSEP) analgesia study, peak-to-peak amplitude
Type: in vivo, human
Details: for Estimate (difference between Treatment A and Treatment B), peak-to-peak LSEP amplitude: single oral dose, 24 subjects, cross-over; for Analgesic effectiveness versus placebo (peak-to-peak LSEP amplitudes), in words: FIG. 1 and Table C
Procedure: General Timing of Study: Each subject was treated on six different treatment days in a randomized, placebo-controlled, double-blind six sequence cross-over study, with each treatment being a different dosage combination of acetaminophen (“APAP”) and ibuprofen (“IBU”) administered in a random order. The total duration of the study per subject was about 46 days. The washout period between the six treatment days was about 7 days. About 2 to 14 days before receiving the first treatment, each subject participated in a one-day, pre-study examination visit.
On each treatment day, each subject stayed for approximately 7 hours at the treatment center, and followed the schedule set forth below in Table A:
Method of Pain Induction: A pulsed CO2 laser, which is commercially available from Synrad, Inc., under the tradename, “Synrad Infrared Gas Laser,” model E48−/−26W was used to induce painful stimuli in the desired skin location.
Evaluation of Pain Relief: Laser induced somatosensory evoked potentials (LSEPs), which served as an objective-quantitative measurement of pain, were generating using Vertex-EEG readings collected using a MUX800/UBV800 Multiplexer and universal bio-amplifier with integrated 15 Hz-impedance measurement, both of which are commercially available from Rimkus Medizintechnik. Twelve artifact free EEG-sections of 3 second duration were averaged in two steps: (1.) 3×4 original sweeps; and (2.) 3×1 averaged sweeps, digitally filtered (Gaussian phase-free software filter on the basis of a Fast Fourier Transform (FFT), with ranges from 1.0 Hz to 12.5 Hz (first step) and 1.5 to 10.0 Hz (second step)). Means were analyzed for a time window of 600 ms after laser stimulation to identify and measure the components of the evoked potentials (latencies and amplitudes). The N1 and P2 components, which are the pain related components of the EEG-signal, were derived as described above and analyzed in accordance with the procedure set forth in Schaffler K., et al., “Analgesic effects of low-dose intravenous orphenadrine in the state of capsaicin hyperalgesia. A randomised, placebo-controlled, double-blind cross-over study using laser somatosensory evoked potentials obtained from capsaicin-irritated skin in healthy volunteers,” 54(10) Arzneimittel-Forschung. 673-9 (2004). The N1-P2-peak-to peak amplitudes as well as the amplitudes of the individual N1 and P2 components were determined from the Vertex-EEG reading, and the correlated pain response was thereby determined in accordance with the procedure generally set forth in Seibel, K., et al., “Comparison of Two Different Preparations of Ibuprofen with Regard to the Time Course of their Analgesic Effect,” 54(8) Arnzeimittel-Forschung 444-51 (2004). The LSEP recording at hour −2:05 served as baseline (=t0). Drug induced analgesia was reflected by an amplitude reduction versus control or comparator treatment.
According to this procedure, a change in LSEP amplitude of about 1.0 to 3.0 μV was previously determined to be generally sufficient to allow for statistically significant discrimination between, for example, a given active agent vs. placebo, vs. other active agents, and/or vs. different dosages of the same active agent. An amplitude difference in the LSEP that exceeds about 2.0-2.5 μV (in peak-to-peak (PtP) amplitude) and > about 1.00-1.25 μV (for the single N1- and P2-components) was defined as clinically relevant.
The procedure set forth in Example 1 was independently performed on 24 subjects in a randomized, placebo-controlled, double-blind 6 sequence cross-over study. The six ibuprofen/acetaminophen treatments administered on the treatment days consisted of two white caplets and 4 red tablets comprised of the doses set forth in Table B: […]

[1] = Treatment B = Placebo, over the treatment period

Compound: CC(=O)Nc1ccc(O)cc1 [APAP 1000 mg, acetaminophen]
- Estimate (difference between Treatment A and Treatment B), peak-to-peak LSEP amplitude (Treatment B = APAP250 + IBU300): 1.6417
- Estimate (difference between Treatment A and Treatment B), peak-to-peak LSEP amplitude (Treatment B = APAP500 + IBU200): 1.5389
- Estimate (difference between Treatment A and Treatment B), peak-to-peak LSEP amplitude (Treatment B = APAP750 + IBU100): 2.7487
- Estimate (difference between Treatment A and Treatment B), peak-to-peak LSEP amplitude (Treatment B = IBU400): 0.01133
- Estimate (difference between Treatment A and Treatment B), peak-to-peak LSEP amplitude [1]: −4.4020
- Analgesic effectiveness versus placebo (peak-to-peak LSEP amplitudes), in words: significantly more effective analgesics than the placebo

Compound: CC(C)Cc1ccc(C(C)C(=O)O)cc1 (centres unmarked) [IBU 400 mg, ibuprofen]
- Estimate (difference between Treatment A and Treatment B), peak-to-peak LSEP amplitude [1]: −4.4134
- Analgesic effectiveness versus placebo (peak-to-peak LSEP amplitudes), in words: significantly more effective analgesics than the placebo
